Assay results reported in paper PMC11505038, “Kalata B1 Enhances Temozolomide Toxicity to Glioblastoma Cells” (Biomedicines, 2024).
Where a SMILES comes first, the peptide text is derived from it. Bridges are numbered along the chain shown (N, C = ends).

How the values were obtained:
[1] = tested on: U-87 MG human glioblastoma cells; assay: cells; conditions: read-out: IC50 (μM) ± S.D.; U-87 MG, MTT, 72 h, 6000 cells/well, cyclotides 0.1-10 μM, TMZ 0.5-5000 μM, best fit nonlinear regression, triplicate wells, n = 3
Experimental: SH-SY5Y human neuroblastoma cells (population doubling (PD) 20−24), T-98G, and U-87 MG human glioblastoma cells were removed from cryogenic storage, thawed rapidly in a water bath (37 °C) and reconstituted in 75 cm^2 flasks. For SH-SY5Y, the following media were used: Dulbecco’s modified Eagle’s medium/Nutrient F12 Ham (Sigma-Aldrich, Cat. No. D8437) containing 10% heat-inactivated fetal bovine serum, 4 mM L-glutamine, 100 U/mL penicillin, and 100 μg/mL streptomycin. For U-87 MG and T-98G Eagle’s minimal essential medium (ATCC: The Global Bioresource Center, Cat. No. ATCC 30-2003), containing 10% heat-inactivated fetal bovine serum, 4 mM L-glutamine, 100 U/mL penicillin, and 100 μg/mL streptomycin were used.
Cells were incubated at 37 °C in a humidified atmosphere of 5% CO2 and 95% air until recovered and ready for passaging (approximately 4 days). At between 80% and 90% confluence, the cells were trypsinized with warm (37 °C) sterile 0.5% Trypsin-EDTA (Thermo Fisher, Cat. No. 15400054) and passaged into 175 cm^2 flasks, where they were left to multiply until they reached 80−90% confluence. To plate cells: cultures were trypsinized, resuspended in 20 mL sterile PBS, counted using a cell counter (Olympus cell counter model R1), and plated in 96-well plates at an optimal density of 6000 cells/well in the designated culture media. The cells were left to adhere overnight before treatment the following day, when the culture medium was removed and replaced with the treatment medium. All incubations were conducted in triplicate wells and repeated at least three times (n = 3).
To calculate TMZ IC50 values in each cell line, TMZ was dissolved in DMSO at a stock concentration of 103 mM, which was then diluted into culture medium on the day of use, with the DMSO final concentration always less than 0.1%. The following concentrations of TMZ were used in the experiments: 0.5, 5, 50, 500, 2500, 5000 μM. The media were sterilized for each treatment media with a 0.22 μm filter before they were added to cell cultures. To determine the IC50 values for each cyclotide in each cell type, cyclotides were dissolved into 10% DMSO and then dilutions used to screen cyclotides with a final DMSO concentration of less than 0.1% The following concentrations of cyclotides were used: 0.1, 1, 5, 10 μM. For co-exposure experiments, a simultaneous exposure of cyclotide and TMZ at each respective dose was added to cell cultures (100 μL final volume per well).
In accordance with the methods developed by Mosmann and colleagues, the MTT assay was conducted using the Roche cell proliferation kit (Cat. No. 11465007001). Briefly, cells that are active can cleave MTT. The MTT is originally a yellow tetrazolium salt that undergoes a colorimetric change to purple formazan crystals, and the change in absorbance can be measured as an indicator of cell viability/proliferation. For these experiments, cells were plated into 96-well flat-bottom plates, as described in the cell culture above. […] To align with our previous work, experiments were conducted with a 72 h time frame for cytotoxicity evaluation.
After a 72 h incubation period, plates were removed from the incubator and 10 µL of MTT was added to each well. The plates were returned to the incubator for an additional 4 h, after which 100 µL of a solubilization solution was added to each well. The plates were returned to incubation overnight, and the next day absorbances were read at 570 nm on a Molecular Devices FlexStation 3 using SoftMax Pro Microplate Data Acquisition and Analysis Software (version 7.0.2).

[2] = cited from earlier work
Excerpt: One of our objectives is to promote research that investigates methods to decrease the required concentrations of drugs such as TMZ for efficacy in vivo. Therefore, it is important to analyze the stability of cyclotides in human serum. The trypsin inhibitor cyclotide, MCoTI-II, has been extracted from the seeds of Momordica cochinchinensis Spreng. [Cucurbitaceae]. […] Huang and colleagues repeated these experiments with MCoTI-II and an ...

U-87 MG cells = conditions: cited from earlier work
glioblastoma cells = conditions: cited from earlier work
[3] = Human serum stability assay (UPLC-MS); conditions: data points of 3 h, 8 h and 24 h; human serum from male AB plasma, 300 µM stock diluted 10 times, 37 °C, UPLC-MS peak area vs control, triplicate
Experimental: Established protocols were used to analyze peptide stability in human serum isolated from male AB plasma (Sigma-Aldrich). Briefly, thawed plasma was centrifuged for 10 min at 15,000× g to concentrate lipids. The supernatant was carefully removed with a Pasteur pipette and incubated for 15 min at 37 °C, 5% CO2. […] Controls were synthetic Kalata B1 or TMZ in PBS that were incubated in parallel with human serum test compounds. Serum proteins were denatured with urea (final concentration of 3M) at 4 °C for 10 min., at each time point. Afterwards, trichloroacetic acid (7% final v/v) was added for 10 min to precipitate the proteins. Each sample was centrifuged for 10 min at 15,000× g; the supernatant was removed an evaluated in triplicate using UPLC-MS.
We conducted peptide stability assays in human serum isolated from male AB plasma and then analyzed with UPLC-MS. Synthetic Kalata B1 and TMZ were incubated with human serum and the portion of the peptide remaining was quantified by calculating the area of the respective elution peak in UPLC-MS, compared to the control.
Percentage of Kalata B1 and TMZ remaining upon incubation with human serum. The portion of serum-treated peptide remaining was determined by calculating the area of the respective elution peak in UPLC-MS and comparing it with the control without incubation. Data points are means ± SEM.

## CC[C@H](C)[C@@H]1NC(=O)[C@@H]2CSSC[C@@H]3NC(=O)[C@H](C(C)C)NC(=O)[C@H](CCCCN)NC(=O)[C@H](CO)NC(=O)[C@H](CCCCN)NC(=O)[C@@H]4CSSC[C@H](NC(=O)[C@H](CO)NC(=O)[C@H](CCC(=O)O)NC(=O)CNC(=O)[C@H](CSSC[C@H](NC(=O)CNC(=O)[C@H](C(C)C)NC(=O)[C@H](C(C)C)NC(=O)[C@H](CO)NC(=O)[C@H](CO)NC1=O)C(=O)N[C@@H](CO)C(=O)N4)NC(=O)[C@@H]1CCCN1C(=O)[C@H](CC(C)C)NC(=O)[C@H]([C@@H](C)O)NC(=O)CNC(=O)[C@H](CC(=O)O)NC(=O)[C@H](CCCCN)NC(=O)[C@H](Cc1ccc(O)cc1)NC3=O)C(=O)N[C@@H](C(C)C)C(=O)N[C@@H](Cc1c[nH]c3ccccc13)C(=O)N[C@@H]([C@@H](C)CC)C(=O)N1CCC[C@H]1C(=O)N2 [CyO19, Cycloviolacin O19] (cyclo(CGESCVWIPCISSVVGCSCKSKVCYKDGTLP); disulfide 1-17, 5-19, 10-24)
[1]
  IC50: 2.4 ± 0.07 µM

## CC(C)C[C@@H]1NC(=O)CNC(=O)[C@H](CC(N)=O)NC(=O)[C@H](CCCNC(=N)N)NC(=O)[C@H](Cc2ccccc2)NC(=O)[C@@H]2CSSC[C@@H]3NC(=O)[C@H]([C@@H](C)O)NC(=O)CNC(=O)CNC(=O)[C@H](C(C)C)NC(=O)[C@@H]4CSSC[C@H](NC(=O)[C@H](CO)NC(=O)[C@H](CSSC[C@H](NC(=O)[C@H](C(C)C)NC(=O)[C@@H]5CCCN5C1=O)C(=O)NCC(=O)N[C@@H](CCC(=O)O)C(=O)N[C@@H]([C@@H](C)O)C(=O)N4)NC(=O)CNC(=O)[C@@H]1CCCN1C(=O)[C@H]([C@@H](C)O)NC(=O)[C@H](CC(N)=O)NC3=O)C(=O)N[C@@H](CO)C(=O)N[C@@H](Cc1c[nH]c3ccccc13)C(=O)N1CCC[C@H]1C(=O)N[C@@H](C(C)C)C(=O)N2 [Vitri E]
[1]
  IC50: 21.1 ± 2.9 µM

## MCoTI-II: trypsin inhibitor cyclotide extracted from the seeds of Momordica cochinchinensis; three-disulfide peptide (cyclo(SGSDGGVCPKILKKCRRDSDCPGACICRGNGYCG); disulfide (positions not given here); also: three disulfides, pairing not given here; UniProt P82409 1-34, looked up)
[2]; 24 h
  Peptide remaining in human serum: 100%
[2]
  Time for which the peptide remained stable in human serum: at least 24 h

## Varv peptide A
U-87 MG cells
  Fold less TMZ required for significant cell death on co-exposure with the cyclotide: 2 fold
Glioblastoma cells
  IC50: 2.91 µM

## CC[C@H](C)[C@@H]1NC(=O)[C@H](C)NC(=O)[C@H](CO)NC(=O)[C@H]([C@@H](C)O)NC(=O)[C@H](CC(C)C)NC(=O)[C@@H]2CSSC[C@@H]3NC(=O)[C@H](C(C)C)NC(=O)[C@H](CCCCN)NC(=O)[C@H](CO)NC(=O)[C@H](CCCCN)NC(=O)[C@@H]4CSSC[C@H](NC(=O)[C@H](CO)NC(=O)[C@H](CCC(=O)O)NC(=O)CNC(=O)[C@H](CSSC[C@H](NC(=O)CNC1=O)C(=O)N[C@@H](CO)C(=O)N4)NC(=O)[C@@H]1CCCN1C(=O)[C@H]([C@@H](C)CC)NC(=O)CNC(=O)[C@H](CC(N)=O)NC(=O)[C@H](CCCNC(=N)N)NC(=O)[C@H](Cc1ccc(O)cc1)NC3=O)C(=O)N[C@@H](C(C)C)C(=O)N[C@@H](Cc1c[nH]c3ccccc13)C(=O)N[C@@H]([C@@H](C)CC)C(=O)N1CCC[C@H]1C(=O)N2 [CyO3, Cycloviolacin O3] (cyclo(AIGCSCKSKVCYRNGIPCGESCVWIPCLTS); disulfide 4-18, 6-22, 11-27)
[1]
  IC50: 2.6 ± 0.05 µM

## CC(C)C[C@@H]1NC(=O)CNC(=O)[C@H](CC(N)=O)NC(=O)[C@H](CCCNC(=N)N)NC(=O)[C@H]([C@@H](C)O)NC(=O)[C@@H]2CSSC[C@@H]3NC(=O)[C@H]([C@@H](C)O)NC(=O)CNC(=O)CNC(=O)[C@H](C(C)C)NC(=O)[C@@H]4CSSC[C@H](NC(=O)[C@H]([C@@H](C)O)NC(=O)[C@H](CSSC[C@H](NC(=O)[C@H](C(C)C)NC(=O)[C@@H]5CCCN5C1=O)C(=O)NCC(=O)N[C@@H](CCC(=O)O)C(=O)N[C@@H]([C@@H](C)O)C(=O)N4)NC(=O)CNC(=O)[C@@H]1CCCN1C(=O)[C@H]([C@@H](C)O)NC(=O)[C@H](CC(N)=O)NC3=O)C(=O)N[C@@H](CO)C(=O)N[C@@H](Cc1c[nH]c3ccccc13)C(=O)N1CCC[C@H]1C(=O)N[C@@H](C(C)C)C(=O)N2 [Kalata B1]
[3]
  Stability in human serum (in words): remained stable
